The structures appear in SMILES notation. Values after ≈ are worked out from the molar mass of the structure shown. Some results are limits rather than exact numbers.

Test systems include Bacillus cereus; Enterobacter cloacae; Enterococcus faecalis; Escherichia coli; Leuconostoc lactis; Listeria innocua; Micrococcus luteus; Pasteurella multocida; Pseudomonas aeruginosa; Streptococcus uberis; Escherichia coli BW25113.
Test in all cases: ≥ marks a high value that may be exact or a test limit, other limits are often not marked, values filed in µg/mL are converted to µM
For assay [1], the system named is Bacillus subtilis KCTC 1918.
Assay [2] deals with Candida albicans KCTC 7270.
Assay [3] has as its system Escherichia coli ATCC 25922.
In assay [4] the test system is Escherichia coli KCTC 1682.
Assay [5] has as its system Proteus vulgaris KCTC 2433.
Assay [6] relates to Pseudomonas aeruginosa ATCC 15692.
In assay [7] the test system is Pseudomonas aeruginosa KCTC 1637.
The subject of assay [8] is Saccharomyces cerevisiae KCTC 7296.
Assay [9] concerns Salmonella typhimurium KCTC 1926.
The subject of assay [10] is Staphylococcus aureus ATCC 25923.
Assay [11] deals with Staphylococcus aureus KCTC 1621.
Assay [12] concerns Staphylococcus epidermidis KCTC 1917.
The test system of assay [13] is Trichosporon beigelii KCTC 7707.
For assay [14], the system named is Staphylococcus aureus NCTC 10788.
The test system of assay [15] is Staphylococcus aureus ATCC 29213.
For assay [16], the system named is Staphylococcus epidermidis.
The test system of assay [17] is Clavibacter michiganensis subsp. michiganensis DSM 46294.
Assay [18] has as its system Pectobacterium carotovorum subsp. carotovorum DSM 30168.
Assay [19] concerns Pseudomonas corrugata DSM 7228.
Assay [20] deals with Pseudomonas syringae pv. syringae DSM 10604.
The test system of assay [21] is Pseudomonas syringae pv. tomato DC3000.
In assay [22] the test system is Xanthomonas vesicatoria DSM 50861.
In assay [23] the test system is Staphylococcus aureus USA 100.
The test system of assay [24] is Candida albicans ATCC 90028.
Assay [25] concerns Pseudomonas aeruginosa ATCC 9027.
For assay [26], the system named is Staphylococcus aureus USA 300.

As for `CC[C@H](C)[C@H](NC(=O)[C@H](CCCCN)NC(=O)[C@H](CO)NC(=O)[C@H](Cc1ccccc1)NC(=O)[C@H](CC(C)C)NC(=O)[C@H](CCCCN)NC(=O)[C@@H]1CCCN1C(=O)[C@H](CC(C)C)NC(=O)[C@H](CCCN=C(N)N)NC(=O)[C@H](CCCCN)NC(=O)[C@H](Cc1ccccc1)NC(=O)[C@@H](NC(=O)[C@H](CCCCN)NC(=O)[C@H](CCCCN)NC(=O)[C@H](C)N)C(C)C)C(=O)N[C@@H](Cc1c[nH]c2ccccc12)C(=O)N[C@@H](CC(N)=O)C(=O)N[C@@H](Cc1c[nH]c2ccccc12)C(=O)N[C@@H](CCCCN)C(N)=O` [AKKVFKRLPKLFSKIWNWK], the MIC (in general, the lowest concentration that inhibits growth of the organism) was determined as 0.39 µM (≈ 0.943 µg/mL) in assay [1]; 3.13 µM (≈ 7.57 µg/mL) in assay [2]; 2 µM (≈ 4.83 µg/mL) in assay [3]; 0.19 µM (≈ 0.459 µg/mL) in [4]; 0.09 µM (≈ 0.218 µg/mL) in assay [5]; 2 µM (≈ 4.83 µg/mL) in assay [6]. Further, the MIC stood at 1.56 µM (≈ 3.77 µg/mL) in assay [7]; 1.56 µM (≈ 3.77 µg/mL) in assay [8]; 0.09 µM (≈ 0.218 µg/mL) in assay [9]; 4 µM (≈ 9.67 µg/mL) in assay [10]; 0.39 µM (≈ 0.943 µg/mL) in [11]; 0.39 µM (≈ 0.943 µg/mL) in [12]. Further, the MIC in [13] was 1.56 µM (≈ 3.77 µg/mL).

As to `CC[C@H](C)[C@H](NC(=O)[C@H](CC(C)C)NC(=O)CNC(=O)[C@H](CC(C)C)NC(=O)[C@@H](N)Cc1ccccc1)C(=O)NCC(=O)N[C@@H](CO)C(=O)N[C@@H](CC(C)C)C(=O)N[C@@H](CC(C)C)C(N)=O` [FLGLIGSLL], in [14], the MIC was at least 137 µM.

`CC[C@H](C)[C@H](NC(=O)[C@@H](NC(=O)[C@@H]1CCCN1C(=O)[C@@H](NC(=O)[C@@H](NC(=O)[C@H](Cc1cnc[nH]1)NC(=O)[C@@H]1CCCN1C(=O)[C@H](CC(C)C)NC(=O)[C@H](CC(C)C)NC(=O)[C@H](Cc1cnc[nH]1)NC(=O)[C@H](CCCCN)NC(=O)[C@H](C)NC(=O)[C@@H](NC(=O)[C@H](CO)NC(=O)CNC(=O)[C@H](CC(C)C)NC(=O)[C@@H](NC(=O)[C@H](CO)NC(=O)[C@H](Cc1ccccc1)NC(=O)[C@H](CC(C)C)NC(=O)CN)C(C)C)C(C)C)C(C)C)C(C)C)C(C)C)C(=O)N[C@@H](C)C(=O)N[C@@H](CCC(=O)O)C(=O)N[C@@H](CCCCN)C(=O)N[C@@H](CC(C)C)C(N)=O` [GLFSVLGSVAKHLLPHVVPVIAEKL]: the MIC in the assay with Bacillus cereus was 19.1 µM (≈ 50 µg/mL); against Enterobacter cloacae it was at least 38.1 µM; against Enterococcus faecalis, at least 38.1 µM; in the assay with Escherichia coli it was above 38.1 µM; against Leuconostoc lactis, 9.53 µM (≈ 25 µg/mL); in the assay on Listeria innocua, 4.57 µM (≈ 12 µg/mL). Besides, the MIC against Micrococcus luteus was 4.57 µM (≈ 12 µg/mL); against Pasteurella multocida, 19.1 µM (≈ 50 µg/mL); against Pseudomonas aeruginosa, above 38.1 µM; in assay [10], 4.57 µM (≈ 12 µg/mL); in [15], 4.57 µM (≈ 12 µg/mL); in [16] it was 9.53 µM (≈ 25 µg/mL). The compound also registered an MIC in the assay on Streptococcus uberis of 9.53 µM (≈ 25 µg/mL).

On to `CC[C@H](C)[C@H](NC(=O)[C@H](C)NC(=O)[C@H](CCCCN)NC(=O)[C@H](CCCN=C(N)N)NC(=O)[C@H](CCCN=C(N)N)NC(=O)[C@@H](N)CCCCN)C(=O)N[C@@H](CCCCN)C(=O)N[C@H](C(=O)N[C@@H](CC(C)C)C(=O)N[C@@H](CCCCN)C(=O)N[C@@H](CC(C)C)C(=O)N[C@H](C(=O)N[C@@H](C)C(=O)N[C@@H](CCCCN)C(=O)N[C@@H](CC(C)C)C(=O)N[C@H](C(=O)N[C@@H](CCCN=C(N)N)C(=O)N[C@@H](CCCCN)C(=O)N[C@@H](CCCCN)C(=O)N[C@@H](CCCN=C(N)N)C(N)=O)[C@@H](C)CC)[C@@H](C)CC)[C@@H](C)CC` [KRRKAIKILKLIAKLIRKKR], for which the MIC amounted to 0.0404 µM (≈ 0.0999 µg/mL) in assay [17]; 4.04 µM (≈ 10 µg/mL) in [18]; 0.101 µM (≈ 0.25 µg/mL) in assay [19]; 4.04 µM (≈ 10 µg/mL) in assay [20]; 4.04 µM (≈ 10 µg/mL) in assay [21]; 0.0404 µM (≈ 0.0999 µg/mL) in assay [22].

In turn, `NC(=O)CC[C@H](NC(=O)[C@H](CCCN=C(N)N)NC(=O)[C@@H](N)CCC(N)=O)C(=O)N[C@@H](CCCN=C(N)N)C(N)=O` [QRQR] yielded an MIC in [23] of at least 100 µM.

For the compound `CC[C@H](C)[C@H](NC(=O)[C@@H]1CCCN1C(=O)[C@@H]1CCCN1C(=O)[C@H](CCCN=C(N)N)NC(=O)[C@H](Cc1ccccc1)NC(=O)[C@@H](N)CCCN=C(N)N)C(=O)N[C@@H](CCCN=C(N)N)C(=O)N[C@@H](CCCN=C(N)N)C(=O)N1CCC[C@H]1C(=O)N1CCC[C@H]1C(=O)N[C@H](C(=O)N[C@@H](CCCN=C(N)N)C(=O)N1CCC[C@H]1C(=O)N1CCC[C@H]1C(=O)N[C@@H](Cc1ccccc1)C(=O)N[C@@H](Cc1c[nH]c2ccccc12)C(=O)N1CCC[C@H]1C(=O)O)[C@@H](C)CC` [RFRPPIRRPPIRPPFWP], the MIC in the assay with Escherichia coli BW25113 stood at 16 µM (≈ 35 µg/mL).

In the case of `CC[C@H](C)[C@H](NC(=O)[C@H](CCCCN)NC(=O)[C@H](Cc1ccccc1)NC(=O)[C@H](CCCCN)NC(=O)[C@H](CCCCN)NC(=O)[C@H](CCCCN)NC(=O)[C@@H](N)CCCN=C(N)N)C(=O)N[C@@H](Cc1ccccc1)C(=O)N[C@@H](CCCCN)C(=O)N[C@@H](CCCN=C(N)N)C(=O)N[C@@H](CC(C)C)C(=O)N[C@@H](Cc1ccccc1)C(N)=O` [RKKKFKIFKRLF], the MIC was 0.61 µM (≈ 0.999 µg/mL) in [17]; 6.1 µM (≈ 9.99 µg/mL) in [18]; 0.305 µM (≈ 0.5 µg/mL) in assay [19]; 0.061 µM (≈ 0.0999 µg/mL) in assay [20]; 0.61 µM (≈ 0.999 µg/mL) in assay [21]; 0.61 µM (≈ 0.999 µg/mL) in assay [22].

As for `CSCC[C@H](NC(=O)[C@H](Cc1cnc[nH]1)NC(=O)[C@H](CCCCN)NC(=O)[C@H](CC(C)C)NC(=O)[C@H](CCCCN)NC(=O)[C@@H](N)CCCN=C(N)N)C(=O)N[C@@H](CCCN=C(N)N)C(=O)N[C@@H](Cc1ccccc1)C(=O)O` [RKLKHMRF], the MIC was at least 100 µM in assay [24], above 100 µM in assay [25], at least 100 µM in assay [23] and at least 100 µM in assay [26].

For the compound `CC[C@H](C)[C@H](NC(=O)[C@@H]1CCCN1C(=O)[C@@H]1CCCN1C(=O)[C@H](CCCN=C(N)N)NC(=O)[C@H](Cc1c[nH]c2ccccc12)NC(=O)[C@@H](N)CCCN=C(N)N)C(=O)N[C@@H](CCCN=C(N)N)C(=O)N[C@@H](CCCN=C(N)N)C(=O)N1CCC[C@H]1C(=O)N1CCC[C@H]1C(=O)N[C@H](C(=O)N[C@@H](CCCN=C(N)N)C(=O)N1CCC[C@H]1C(=O)N1CCC[C@H]1C(=O)N[C@@H](Cc1c[nH]c2ccccc12)C(=O)N[C@@H](Cc1ccc(O)cc1)C(=O)N1CCC[C@H]1C(=O)O)[C@@H](C)CC` [RWRPPIRRPPIRPPWYP], the MIC in the assay with Escherichia coli BW25113 was found to be 16 µM (≈ 35.9 µg/mL).
